Results published in US11034724B2, “Crystalline salt forms of Boc-D-Arg-DMT-Lys-(Boc)-Phe-NH2” (Stealth BioTherapeutics Corp., priority 2017, dated 2021).
Values after ≈ are worked out from the molar mass of the structure shown. Where two headings read alike, the source gives them in different places. Non-standard residues stand in square brackets, D forms with d. Residues, ends and D or L forms follow the SMILES beside them. *: point of attachment. Dmt = Cc1cc(O)cc(C)c1C[C@H](N)C(=O)O; Boc = CC(C)(C)OC(=O)*

Tests used:
Assay type in all cases: physicochemical
[1] = Approximate solubility assessment (solvent addition technique); details: dichloromethane, 35° C. for dichloromethane, read-out: Approximate Solubility (50° C.)
[2] = as above
Description: Approximate Solubility Assessment of Boc-D-Arg-DMT-Lys(Boc)-Phe-NH2
The solubility screen was carried out as follows: • Approximately 20 mg of Boc-D-Arg-DMT-Lys(Boc)-Phe-NH2 was weighed out into each vial. • Each solvent/solvent mixture was added to the appropriate vial in 5 volume aliquots (100 μL). • In between additions, the sample was stirred at 50° C.
The solubility assessment was estimated by a solvent addition technique, heating at 50° C. between aliquots (see Table 9).

[3] = Gravimetric vapour sorption (GVS), hygroscopicity
Description: Gravimetric Vapour Sorption (GVS)
Approximately 15 mg of sample was placed into a mesh vapour sorption balance pan and loaded into an IGASorp Moisture Sorption Analyser balance by Hiden Analytical. The sample was subjected to a ramping profile from 40-90% relative humidity (RH) at 10% increments, maintaining the sample at each step until a stable weight had been achieved (98% step completion). After completion of the sorption cycle, the sample was dried using the same procedure to 0% RH, then subjected to a second ramping profile from 0-90% relative humidity. After completion of the second sorption cycle, the sample was dried using the same procedure to 0% RH, and finally taken back to the starting point of 40% RH. The weight change during the sorption/desorption cycles were plotted, allowing for the hygroscopic nature of the sample to be determined.

SMILES: Cc1cc(O)cc(C)c1C[C@H](NC(=O)[C@@H](CCCNC(=N)N)NC(=O)OC(C)(C)C)C(=O)N[C@@H](CCCCNC(=O)OC(C)(C)C)C(=O)N[C@@H](Cc1ccccc1)C(N)=O [Boc-D-Arg-DMT-Lys(Boc)-Phe-NH2] (Boc-[dR][Dmt]K(Boc)F-NH2)
- solubility [1]: < 10 mg/mL
- solubility ([2]; 2-butanol, solvent 2-Butanol, 50° C., read-out: Approximate Solubility (50° C.)): 17 mg/mL (≈ 20.2 mM)
- solubility ([2]; 2-propanol, solvent 2-Propanol, 50° C., read-out: Approximate Solubility (50° C.)): 14 mg/mL (≈ 16.7 mM)
- solubility ([2]; 2-propanol:water (50:50% v/v), solvent 2-propanol:water (50:50% v/v), 50° C., read-out: Approximate Solubility (50° C.)): ~100 mg/mL (≈ 119 mM)
- solubility ([2]; DMSO:acetone (50:50% v/v), solvent DMSO:acetone (50:50% v/v), 50° C., read-out: Approximate Solubility (50° C.)): ≥ 200 mg/mL
- solubility ([2]; DMSO:water (50:50% v/v), solvent DMSO:water (50:50% v/v), 50° C., read-out: Approximate Solubility (50° C.)): 24 mg/mL (≈ 28.6 mM)
- solubility ([2]; acetone, solvent Acetone, 50° C., read-out: Approximate Solubility (50° C.)): < 10 mg/mL
- solubility ([2]; acetone:water (50:50% v/v), solvent Acetone:water (50:50% v/v), 50° C., read-out: Approximate Solubility (50° C.)): 58 mg/mL (≈ 69 mM)
- solubility ([2]; acetonitrile, solvent Acetonitrile, 50° C., read-out: Approximate Solubility (50° C.)): < 10 mg/mL
- solubility ([2]; acetonitrile:water (50:50% v/v), solvent Acetonitrile:water (50:50% v/v), 50° C., read-out: Approximate Solubility (50° C.)): ≥ 200 mg/mL
- solubility ([2]; all other solvent systems: acetone, dichloromethane, 2-butanol, 2-propanol, methyl ethyl ketone, toluene, THF, ethyl acetate, acetonitrile, read-out: Poor solubility): ≤ 17 mg/mL
- solubility ([2]; ethanol, solvent Ethanol, 50° C., read-out: Approximate Solubility (50° C.)): ~140 mg/mL (≈ 167 mM)
- solubility ([2]; ethanol:water (50:50% v/v), solvent Ethanol:water (50:50% v/v), 50° C., read-out: Approximate Solubility (50° C.)): ~100 mg/mL (≈ 119 mM)
- solubility ([2]; ethyl acetate, solvent Ethyl acetate, 50° C., read-out: Approximate Solubility (50° C.)): < 10 mg/mL
- solubility ([2]; in acetone:water (50:50 v/v), methanol:water (50:50 v/v) and DMSO:water (50:50 v/v), 50° C.): 58 to 24 mg/mL
- solubility ([2]; methanol, solvent Methanol, 50° C., read-out: Approximate Solubility (50° C.)): ≥ 200 mg/mL
- solubility ([2]; methanol:water (50:50% v/v), solvent Methanol:water (50:50% v/v), 50° C., read-out: Approximate Solubility (50° C.)): 45 mg/mL (≈ 53.6 mM)
- solubility ([2]; methyl ethyl ketone, solvent Methyl ethyl ketone, 50° C., read-out: Approximate Solubility (50° C.)): < 10 mg/mL
- solubility ([2]; tetrahydrofuran, solvent Tetrahydrofuran, 50° C., read-out: Approximate Solubility (50° C.)): < 10 mg/mL
- solubility ([2]; toluene, solvent Toluene, 50° C., read-out: Approximate Solubility (50° C.)): < 10 mg/mL
- solubility ([2]; trifluoroethanol, solvent Trifluoroethanol, 50° C., read-out: Approximate Solubility (50° C.)): ≥ 200 mg/mL
- Mass increase by GVS ([3]; between 40-90% RH, received, predominantly amorphous material): ca. 10%
- Hygroscopicity after crystallization ([3]; crystallized material compared with the amorphous input): did not show an improvement in terms of hygroscopicity
- Hygroscopicity by GVS analysis ([3]; received, predominantly amorphous material): highly hygroscopic
